Reference: patent US20240226302A1, “BIODEGRADABLE LIPIDS AND FORMULATIONS FOR INTRAMUSCULAR, IN VITRO, AND EX VIVO TRANSFECTION OF MRNA” (Massachusetts Institute of Technology, priority 2022, published 2024)

Legend:
[1] = tested on: HeLa cells; experiment: In vitro full factorial DOE formulation screening of LNPs, luciferase expression, Bright-Glo assay; format: cell-based
Protocol: (§1) LNPs for in vitro studies and intramuscular injections were prepared by hand mixing. The lipid components were dissolved in ethanol and, separately, mRNA encoding for firefly luciferase (fLuc) was diluted into a solution of 10 mM citrate pH 3.0 at a concentration of […]. The two solutions were mixed in a 3:1 water:ethanol volume ratio by repeatedly pipetting up and down. For intravenous studies, nanoparticles were instead formed by mixing the ethanol and aqueous phases with a microfluidic chip as described previously.
HeLa cells were plated on a white, flat-bottom 96 well plate (Corning, Corning, NY) at a density of 15k cells/well and allowed to recover for 24 hrs. Each well was then dosed with 150 ng of mRNA, and, after 24 hrs., luciferase expression was determined using a Bright-Glo assay (Promega, Madison, WI). The first generation of ionizable lipids was screened in this manner and the results are shown as performance relative to a positive control MD-1^3 in a heatmap in FIG. 2.
For intravenous experiments, design of experiments (DOE) was used to systematically vary the ratios of each of the LNP components for lipid AMG104. First, an initial screening of each of the components was performed using a definitive screening design. This experimental design allows for identification of the LNP components which have the greatest effect on delivery potency. […]

[2] = tested on: mice; experiment: Intramuscular injection of LNPs loaded with firefly luciferase mRNA, 0.25 mg/kg, luciferase expression; format: in vivo; details: for potency compared to MD-1 (luciferase expression): 0.25 mg/kg Fluc mRNA
Protocol: as §1
The in vivo potency of the ionizable lipids was screened through intramuscular injection of LNPs loaded with mRNA encoding firefly luciferase protein. These LNPs were formulated with a molar composition of (35:16:46.5:2.5) using one of the synthesized ionizable lipids, DOPE as a helper lipid, cholesterol, and DMPE-PEG. Ionizable lipid AMG104 was chosen due to high in vitro mRNA transfection ability. mRNA-loaded LNPs were intramuscularly administered in mice at a dose of 0.25 mg/kg (5 μg) and expression of luciferase protein was monitored at 6 hours (0.25 day), and day 1, 2, 3, 5 and 7.
Additional lipids were synthesized varying length of the hydrophobic tail with or without one alkene or by varying the location of the internal alkene near or away from the ester linkage. The number of carbons on the amine headgroup was also varied (FIG. 4). […] The luciferase expression was monitored at 6 h, 24 h, and 48 h time points after intramuscular administration of Fluc mRNA dosed at 0.25 mg/kg formulated with various LNPs containing these lipids.

[3] = tested on: Jurkat cells; experiment: mRNA (luciferase) transfection of Jurkat cells by LNPs, Bright-Glo assay; format: cell-based, human; details: 150 ng mRNA
Protocol: as §1
Based on high transfection potency in Hela cells, some of the potent lipids were tested for mRNA delivery efficacy in Jurkat cells, an immortalized human T-cell line for potential CAR-T therapeutic applications. Jurkat cells were cultured in a RPMI-1640 medium with L-glutamine supplemented with 10% bovine serum and 1% penicillin-streptomycin. Jurkat cells were plated on a white, flat-bottom 96 well plate (Corning, Corning, NY) at a density of 100k cells/well and co-incubated dosed with 150 ng of mRNA. Luciferase expression in the cells was determined after 24 hours using a Bright-Glo assay (Promega, Madison, WI) and normalized to cell viability (Multi-tox, Promega).

[4] = Lipid clearance monitored by LC-MS after intramuscular injection; format: in vivo; details: BALB/C mice, LC-MS (FIG. 15A)
Protocol: AMG1041 lipid clearance was monitored by LC-MS after intramuscular injection to BALB/C mice at various time points. AMG1041 was cleared within 24 hours from the injection site in the muscle (FIG. 15A). As a comparison, SM-102 was detectable even after 40 hours (FIG. 15B).^5 https://www.ncbi.nlm.nih.gov/pmc/articles/PMC6383180/).

[5] = tested on: ovalbumin; experiment: Vaccination against ovalbumin by intramuscular injection of Ova mRNA, antibody titers and Elispot; format: in vivo
Protocol: AMG1041 was tested for vaccination against ovalbumin.

[6] = Intramuscular route screening with FLuc mRNA (0.1 μg), luciferase expression; format: in vivo; details: FLuc mRNA 0.1 μg (FIG. 12)
Protocol: In addition, the importance of the OH group was evaluated. The importance of the orientation of the ester and OH was also evaluated (FIG. 10). The additional tails were also used to synthesize AMG1058, AMG1059, and AMG1041OHD. From a screening experiment using 0.1 μg FLuc mRNA dose, it was determined that the ester's specific orientation and the OH groups' location are important for G41 potency and that minor alterations can dramatically decrease potency.
The potency of these lipids was tested in vivo via intramuscular administration. AMG1041OHD was not tested in vivo due to difficulty in formulating these particles. The FLuc mRNA (0.1 μg) intramuscular route screening data is shown in FIG. 12 for the AMG1041 derivative lipids.

[7] = comparison, FIG. 15B, reference 5 (Hassett et al.); cited from earlier work

CCCCCCCC/C=C\CCCCCCCC(=O)OCC(O)CN1CCCN(CC(O)COC(=O)CCCCCCC/C=C\CCCCCCCC)CCN(CC(O)COC(=O)CCCCCCC/C=C\CCCCCCCC)CCCN(CC(O)COC(=O)CCCCCCC/C=C\CCCCCCCC)CC1 (stereo not shown) [AMG104]
in vitro performance of formulation 2 relative to the original (control) formulation 1 ([1]; AMG104 LNP formulation 2 (helper 35%, ionizable lipid 30%, cholesterol 32.5%, DMPE-PEG 2.5%, lipid:mRNA 10:1) vs formulation 1 (16/35/46.5)): ~8.2 × | in vitro transfection ([1]; AMG104 using formulation 2): extremely potent in vitro transfection | luciferase protein expression in mice ([2]; 0.25 mg/kg (5 μg) fLuc mRNA, LNP 35:16:46.5:2.5 ionizable lipid:DOPE:cholesterol:DMPE-PEG): high luciferase protein expression | potency compared to MD-1 (luciferase expression) [2]: comparable to that of MD1 | transfection in jurkat cells as compared to MD-1 lipid ([3]; 24 hours (FIG. 3)): increased transfection | mRNA transfection compared to commercially used lipofectamine positive controls ([3]; 24 hours, normalized to cell viability (FIG. 3)): higher mRNA transfection

CCCCCC/C=C\CCCC(=O)OCC(O)CN1CCCN(CC(O)COC(=O)CCC/C=C\CCCCCC)CCN(CC(O)COC(=O)CCC/C=C\CCCCCC)CCCN(CC(O)COC(=O)CCC/C=C\CCCCCC)CC1 (stereo not shown) [AMG1041]
time to clearance from the injection site in the muscle [4]: ≤ 24 h | luciferase expression, times higher ([2]; 0.25 mg/kg Fluc mRNA (FIG. 5A), comparator not stated, MD-1 named in the same sentence): 2-3 times | cellular response from Elispot assay as compared to SM-102 and MD-1 ([5]; after day 28 (FIG. 14)): strong cellular response | antibody titers, potency compared to SM-102 ([5]; day 14, intramuscular, varying Ova mRNA doses (FIG. 14)): higher potency compared to SM-102

CCCC/C=C\CCCCCCCC(=O)OCC(O)CN1CCCN(CC(O)COC(=O)CCCCCCC/C=C\CCCC)CCN(CC(O)COC(=O)CCCCCCC/C=C\CCCC)CCCN(CC(O)COC(=O)CCCCCCC/C=C\CCCC)CC1 (stereo not shown) [AMG1042]
potency compared to MD-1 (luciferase expression) [2]: nearly as potent as

CCCCCC/C=C\CCCCCCCC(=O)OCC(O)CN1CCCN(CC(O)COC(=O)CCCCCCC/C=C\CCCCCC)CCN(CC(O)COC(=O)CCCCCCC/C=C\CCCCCC)CCCN(CC(O)COC(=O)CCCCCCC/C=C\CCCCCC)CC1 (stereo not shown) [AMG1043]
potency compared to MD-1 (luciferase expression) [2]: nearly as potent as

CCCCCC/C=C\CCCCCCCCCC(=O)OCC(O)CN1CCCN(CC(O)COC(=O)CCCCCCCCC/C=C\CCCCCC)CCN(CC(O)COC(=O)CCCCCCCCC/C=C\CCCCCC)CCCN(CC(O)COC(=O)CCCCCCCCC/C=C\CCCCCC)CC1 (stereo not shown) [AMG1044]
potency compared to MD-1 (luciferase expression) [2]: nearly as potent as

CCCC/C=C\C/C=C\CCC(=O)OCC(O)CN1CCCN(CC(O)COC(=O)CC/C=C\C/C=C\CCCC)CCN(CC(O)COC(=O)CC/C=C\C/C=C\CCCC)CCCN(CC(O)COC(=O)CC/C=C\C/C=C\CCCC)CC1 (stereo not shown) [AMG1053]
luciferase expression compared to control sample with MD-1 [6]: nearly as well as the control sample with MD-1

C/C=C\C/C=C\CCCCCC(=O)OCC(O)CN1CCCN(CC(O)COC(=O)CCCCC/C=C\C/C=C\C)CCN(CC(O)COC(=O)CCCCC/C=C\C/C=C\C)CCCN(CC(O)COC(=O)CCCCC/C=C\C/C=C\C)CC1 (stereo not shown) [AMG1056]
luciferase expression compared to control sample with MD-1 [6]: performed similarly

CCCCCCCCCCCOC(=O)CCCCCN(CCO)CCCCCCCC(=O)OC(CCCCCCCC)CCCCCCCC [SM-102]
time after which lipid was still detectable [7]: > 40 h
